Source: PubChem BioAssay AID330 (DTP/NCI, 2004)
Several values for one entry are separate records, joined by “and”; a condition that tells them apart may be missing. Equal values may be shown once. Toxic doses and inconclusive results are not listed. Rule for the calls: active = survival T/C of 150% or more; inactive = T/C below 125% in these data.

Tested on: P388 leukemia ip, CD2F1 mice, survival T/C
Assay: NCI In Vivo Anticancer Drug Screen. Data for tumor model P388 Leukemia (intraperitoneal) in CD2F1 (CDF1) mice
Conditions: endpoint: median survival time, higher = longer survival
Outline: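 Mice carrying the transplanted tumor received test compound or vehicle. Survival was recorded in each group, and the value is the treated-group measurement divided by that of the vehicle-treated control group.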

[1] = dose: 12.5 mg/kg/injection, schedule: Q01DX005 (ip), vehicle: saline
[2] = dose: 25.0 mg/kg/injection, schedule: Q01DX005 (ip), vehicle: saline
[3] = dose: 12.5 mg/kg/injection, schedule: Q01DX005 (ip), vehicle: saline with Tween-80
[4] = dose: 50.0 mg/kg/injection, schedule: Q01DX005 (ip), vehicle: saline
[5] = dose: 100.0 mg/kg/injection, schedule: Q01DX005 (ip), vehicle: saline
[6] = dose: 25.0 mg/kg/injection, schedule: Q01DX005 (ip), vehicle: saline with Tween-80
[7] = dose: 50.0 mg/kg/injection, schedule: Q01DX005 (ip), vehicle: saline with Tween-80
[8] = dose: 50.0 mg/kg/injection, schedule: Q01DX009 (ip), vehicle: saline
[9] = dose: 100.0 mg/kg/injection, schedule: Q01DX009 (ip), vehicle: saline
[10] = dose: 200.0 mg/kg/injection, schedule: Q01DX009 (ip), vehicle: saline
[11] = dose: 60.0 mg/kg/injection, schedule: Q01DX005 (ip), vehicle: saline with Tween-80
[12] = dose: 120.0 mg/kg/injection, schedule: Q01DX005 (ip), vehicle: saline with Tween-80
[13] = dose: 240.0 mg/kg/injection, schedule: Q01DX005 (ip), vehicle: saline with Tween-80

Measured: T/C

COc1cc(C2c3cc(O)c(OC)cc3CC(O)(CO)C2CO)ccc1O (stereo unspecified)
inactive: dose: 23.75 mg/kg/injection, schedule: Q01DX005 (ip), vehicle: Klucel (hydroxypropylcellulose) (HPC) 100 % of control | dose: 47.5 mg/kg/injection, schedule: Q01DX005 (ip), vehicle: Klucel (hydroxypropylcellulose) (HPC) 95 % of control | dose: 95.0 mg/kg/injection, schedule: Q01DX005 (ip), vehicle: Klucel (hydroxypropylcellulose) (HPC) 86 % of control | dose: 190.0 mg/kg/injection, schedule: Q01DX005 (ip), vehicle: Klucel (hydroxypropylcellulose) (HPC) 90 % of control

S=c1nn[nH]c2[nH]ncc12
inactive: dose: 100.0 mg/kg/injection, schedule: Q01DX001 (ip), vehicle: saline with Tween-80 94 % of control | dose: 200.0 mg/kg/injection, schedule: Q01DX001 (ip), vehicle: saline with Tween-80 102 % of control | dose: 400.0 mg/kg/injection, schedule: Q01DX001 (ip), vehicle: saline with Tween-80 108 % of control

CN1CCC2(C)CC1Cc1ccc(O)cc12 (stereo unspecified)
inactive: dose: 3.12 mg/kg/injection, schedule: Q01DX005 (ip), vehicle: saline 96 % of control | dose: 6.25 mg/kg/injection, schedule: Q01DX005 (ip), vehicle: saline 104 % of control | [1] 105 % of control | [2] 96 % of control

Cc1nnc(N/N=C/c2ccc([N+](=O)[O-])o2)[nH]c1=O
inactive: dose: 6.25 mg/kg/injection, schedule: Q01DX005 (ip), vehicle: saline with Tween-80 101 % of control and 114 % of control | [3] 115 % of control and 118 % of control (2×)

CSC(=S)n1nc(C)c(N=Nc2ccccc2[N+](=O)[O-])c1C
inactive: dose: 100.0 mg/kg/injection, schedule: Q01DX001 (ip), vehicle: Klucel (hydroxypropylcellulose) (HPC) 111 % of control | dose: 200.0 mg/kg/injection, schedule: Q01DX001 (ip), vehicle: Klucel (hydroxypropylcellulose) (HPC) 96 % of control | dose: 400.0 mg/kg/injection, schedule: Q01DX001 (ip), vehicle: Klucel (hydroxypropylcellulose) (HPC) 106 % of control

CC1(O)CC23CC(O)C4(O)C(CC(O)C4(C)C)C(C)(O)C2CCC1C3O (stereo unspecified)
inactive: dose: 0.25 mg/kg/injection, schedule: Q01DX009 (ip), vehicle: Klucel (hydroxypropylcellulose) (HPC) 97 % of control | dose: 0.5 mg/kg/injection, schedule: Q01DX009 (ip), vehicle: Klucel (hydroxypropylcellulose) (HPC) 103 % of control

Cc1cc(Br)c(NC(=S)SCc2ccc(Cl)cc2)cc1C
inactive: dose: 50.0 mg/kg/injection, schedule: Q01DX009 (ip), vehicle: suspension in saline 101 % of control | dose: 100.0 mg/kg/injection, schedule: Q01DX009 (ip), vehicle: suspension in saline 107 % of control | dose: 200.0 mg/kg/injection, schedule: Q01DX009 (ip), vehicle: suspension in saline 98 % of control

CC1CN(C(C)(C)C)CO1 (stereo unspecified)
inactive: [1] 112 % of control and 88 % of control | [2] 107 % of control | [4] 114 % of control and 117 % of control and 119 % of control | [5] 119 % of control and 120 % of control | dose: 200.0 mg/kg/injection, schedule: Q01DX005 (ip), vehicle: saline 107 % of control

CCCCCCCCCC(=O)CCCCC
inactive: dose: 100.0 mg/kg/injection, schedule: Q01DX009 (ip), vehicle: other 115 % of control | dose: 200.0 mg/kg/injection, schedule: Q01DX009 (ip), vehicle: other 115 % of control | dose: 400.0 mg/kg/injection, schedule: Q01DX009 (ip), vehicle: other 90 % of control

C[N+](C)=NC1CCC(C(C)(C)C)CC1 (stereo unspecified)
inactive: [3] 99 % of control | [6] 99 % of control | [7] 100 % of control

C[As](C)SC(CO)C1OC2OC(C)(C)OC2C1O (stereo unspecified)
inactive: dose: 50.0 mg/kg/injection, schedule: Q01DX009 (ip), vehicle: saline + alcohol 108 % of control

C=C=C(C)C(C(C)C)N1CCCC1 (stereo unspecified)
inactive: [4] 113 % of control | [5] 104 % of control

CC1=Nc2ccccc2NC(C)(C)C1
inactive: [8] 103 % of control | [9] 100 % of control | [10] 100 % of control

CN1NC(c2ccccc2)=NN=C1c1ccccc1
inactive: [11] 104 % of control | [12] 102 % of control | [13] 105 % of control

CNC(=O)NNC(=O)c1ccccc1Cl
inactive: [11] 106 % of control | [12] 101 % of control | [13] 103 % of control

COC(=O)C1(F)C(=O)NC(=O)NC1O (stereo unspecified)
inactive: dose: 7.5 mg/kg/injection, schedule: Q01DX005 (ip), vehicle: saline 100 % of control | dose: 15.0 mg/kg/injection, schedule: Q01DX005 (ip), vehicle: saline 102 % of control | dose: 30.0 mg/kg/injection, schedule: Q01DX005 (ip), vehicle: saline 100 % of control

CCOC(=O)/C=C(\NC1CC(OC2C[C@](O)(C(C)=O)Cc3c(O)c4c(c(O)c32)C(=O)c2c(OC)cccc2C4=O)OC(C)C1O)C(=O)OCC (stereo partly specified)
inactive: dose: 6.25 mg/kg/injection, schedule: Q04DX003 (ip), vehicle: saline with Tween-80 106 % of control | dose: 12.5 mg/kg/injection, schedule: Q04DX003 (ip), vehicle: saline with Tween-80 113 % of control | dose: 25.0 mg/kg/injection, schedule: Q04DX003 (ip), vehicle: saline with Tween-80 105 % of control | dose: 50.0 mg/kg/injection, schedule: Q04DX003 (ip), vehicle: saline with Tween-80 124 % of control

COc1ccc2c(c1)C13CCCCC1C(C2)N(C)CC3 (stereo unspecified)
inactive: [3] 94 % of control | [6] 100 % of control | [7] 100 % of control | [4] 99 % of control

COc1cc(/C=C/C2=C(C)C(=O)CC(c3cc(OC)c(OC)c(OC)c3)C2C)cc(OC)c1OC (stereo unspecified)
inactive: dose: 12.5 mg/kg/injection, schedule: Q04DX003 (ip), vehicle: Klucel (hydroxypropylcellulose) (HPC) 100 % of control | dose: 25.0 mg/kg/injection, schedule: Q04DX003 (ip), vehicle: Klucel (hydroxypropylcellulose) (HPC) 101 % of control | dose: 50.0 mg/kg/injection, schedule: Q04DX003 (ip), vehicle: Klucel (hydroxypropylcellulose) (HPC) 97 % of control

O=S(=O)(C1=C[C@H](O)C[C@@H]1O)c1ccccc1
inactive: dose: 60.0 mg/kg/injection, schedule: Q01DX005 (ip), vehicle: Klucel (hydroxypropylcellulose) (HPC) 98 % of control | dose: 120.0 mg/kg/injection, schedule: Q01DX005 (ip), vehicle: Klucel (hydroxypropylcellulose) (HPC) 107 % of control | dose: 240.0 mg/kg/injection, schedule: Q01DX005 (ip), vehicle: Klucel (hydroxypropylcellulose) (HPC) 100 % of control

Cc1nc(-c2ccccc2)c2c(C)[nH]c(-c3ccccc3)c2n1
inactive: dose: 50.0 mg/kg/injection, schedule: Q01DX009 (ip), vehicle: Klucel (hydroxypropylcellulose) (HPC) 110 % of control | dose: 100.0 mg/kg/injection, schedule: Q01DX009 (ip), vehicle: Klucel (hydroxypropylcellulose) (HPC) 112 % of control | dose: 200.0 mg/kg/injection, schedule: Q01DX009 (ip), vehicle: Klucel (hydroxypropylcellulose) (HPC) 104 % of control

C#C/C=C/CC1OC(C(Br)CC)/C=C\CCC1Cl (stereo unspecified)
inactive: dose: 2.0 mg/kg/injection, schedule: Q01DX009 (ip), vehicle: Klucel (hydroxypropylcellulose) (HPC) 94 % of control | dose: 4.0 mg/kg/injection, schedule: Q01DX009 (ip), vehicle: Klucel (hydroxypropylcellulose) (HPC) 98 % of control | dose: 8.0 mg/kg/injection, schedule: Q01DX009 (ip), vehicle: Klucel (hydroxypropylcellulose) (HPC) 103 % of control | dose: 16.0 mg/kg/injection, schedule: Q01DX009 (ip), vehicle: Klucel (hydroxypropylcellulose) (HPC) 94 % of control

O=S(=O)(Cc1ccccc1)/N=C/c1ccccc1
inactive: dose: 50.0 mg/kg/injection, schedule: Q01DX009 (ip), vehicle: saline with Tween-80 103 % of control and 105 % of control | dose: 100.0 mg/kg/injection, schedule: Q01DX009 (ip), vehicle: saline with Tween-80 99 % of control and 105 % of control | dose: 200.0 mg/kg/injection, schedule: Q01DX009 (ip), vehicle: saline with Tween-80 107 % of control and 123 % of control

S=C(S)N1CCCCC1
inactive: dose: 3.13 mg/kg/injection, schedule: Q01DX009 (ip), vehicle: saline 88 % of control | dose: 6.25 mg/kg/injection, schedule: Q01DX009 (ip), vehicle: saline 91 % of control | dose: 12.5 mg/kg/injection, schedule: Q01DX009 (ip), vehicle: saline 86 % of control | dose: 25.0 mg/kg/injection, schedule: Q01DX009 (ip), vehicle: saline with Tween-80 91 % of control | dose: 25.0 mg/kg/injection, schedule: Q01DX009 (ip), vehicle: saline 86 % of control

NC(=O)c1ncn(C2OC(COP(=O)(O)O)C(O)C2O)n1 (stereo unspecified)
inactive: [8] 104 % of control and 106 % of control | [9] 107 % of control and 109 % of control | [10] 113 % of control and 120 % of control

CCCCC/C([O-])=C1/C(=O)N(c2ccccc2)N=C1C.CCCCC/C([O-])=C1/C(=O)N(c2ccccc2)N=C1C.[Cu+2]
inactive: [11] 96 % of control | [12] 101 % of control
